Assay results reported in article PMC7349657, “Efficient Targeted Degradation via Reversible and Irreversible Covalent PROTACs” (Journal of the American Chemical Society, 2020).

Key:
BTK [1] = biological target: T1, BTK (Homo sapiens, UniProt Q06187); assay: Mechanism validation: pretreatment with ibrutinib, thalidomide-OH or bortezomib before PROTAC in Mino cells; format: cell-based; parameters: endogenous in cells; host or cells: Mino (ATCC CRL-3000), Ramos (ATCC CRL-1596), K562 (NCI-60)
wild-type BTK = wild-type BTK (Homo sapiens, UniProt Q06187); assay: In vitro kinase activity assay, wild-type BTK (Nanosyn)
wild-type BTK, sequence (Q06187 whole entry, species assumed): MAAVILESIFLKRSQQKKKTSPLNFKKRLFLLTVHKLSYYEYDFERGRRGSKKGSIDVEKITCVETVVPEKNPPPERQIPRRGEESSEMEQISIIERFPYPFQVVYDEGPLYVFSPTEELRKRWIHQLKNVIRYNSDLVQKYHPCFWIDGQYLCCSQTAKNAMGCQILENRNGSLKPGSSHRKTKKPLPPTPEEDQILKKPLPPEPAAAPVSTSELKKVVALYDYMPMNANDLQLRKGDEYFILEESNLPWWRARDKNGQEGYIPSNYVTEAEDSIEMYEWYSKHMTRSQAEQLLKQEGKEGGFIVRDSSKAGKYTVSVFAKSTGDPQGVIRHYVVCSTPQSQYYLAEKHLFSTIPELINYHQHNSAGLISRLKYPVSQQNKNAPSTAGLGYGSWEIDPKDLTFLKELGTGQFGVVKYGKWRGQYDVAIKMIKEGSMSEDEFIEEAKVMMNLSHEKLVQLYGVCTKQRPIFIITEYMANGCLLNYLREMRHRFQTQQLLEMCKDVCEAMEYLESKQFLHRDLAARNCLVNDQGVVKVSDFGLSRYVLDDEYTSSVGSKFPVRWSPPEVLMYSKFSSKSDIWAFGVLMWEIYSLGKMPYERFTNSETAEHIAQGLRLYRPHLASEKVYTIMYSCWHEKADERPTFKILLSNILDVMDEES

BTK [2] = biological target: T1, BTK; assay: BTK degradation in Mino cells, dose-response Western blot; format: cell-based; parameters: endogenous in cells; host or cells: Mino (ATCC CRL-3000), Ramos (ATCC CRL-1596), K562 (NCI-60); conditions: MINO, 24 h, read-out: Dmax (maximal degradation)
Experimental: We evaluated the ability of the compounds to induce degradation of BTK in human cell lines. We incubated Mino cells with the compounds and followed BTK levels after 24 h by Western blot (Figure 2, Supporting Figure 2). […] The irreversible acrylamides IR-1 and IR-2 and the cyanoacrylamide RC-3 followed closely with DC50’s under 10 nM and Dmax near 90%. […] We conducted metabolomics studies to estimate if cellular penetration and stability may contribute to the relative potencies (Supporting Table 2). NC-1 and RC-3 reached an effective concentration that was ∼2 times higher than IR-2 and ∼10 times higher than RC-2. Therefore, the lower potency of RC-2 can at least in part be explained by lower permeability or stability.
Figure 2 Efficient BTK degradation in cells. (A) Western blot evaluation of BTK levels in Mino cells in response to various concentrations of RC-2, IR-2, NC-1, and RC-3, after 24 h of incubation. (B) Quantification of BTK levels in (A) by normalization to the β-actin house-keeping gene in Mino cells. DC50 and Dmax were calculated by fitting the data to a second-order polynomial using Prism software. (C) Summary of the DC50 and Dmax values for the PROTACs in Mino cells described in (A) and Supporting Figure 2. TEXT PRINTED IN THE PICTURE: (C) NC-1: DC50 (nM): 2.2; Dmax (%): 97 | (C) IR-1: DC50 (nM): 8.6; Dmax (%): 91 | (C) IR-2: DC50 (nM): 1.9; Dmax (%): 88 | (C) RC-1: DC50 (nM): 10; Dmax (%): 68 | (C) RC-2: DC50 (nM): 35; Dmax (%): 66 | (C) RC-3: DC50 (nM): 6; Dmax (%): 85
(§1) Ramos (ATCC, CRL-1596), Mino (ATCC, CRL-3000), or K562 (NCI-60) cell lines were counted and diluted to 10^6 cell/mL, using 1 mL per well in a 24-well plate, and U2OS (ATCC HTB-96) cells overexpressing human BTK WT or C481S mutant were grown using 2 mL in a six-well plate (see Supporting Information). Cells were incubated with 1% DMSO or compound in indicated concentrations for 24 h unless indicated differently, or cells were left untreated. Lysates were prepared as previously described,[29] and samples were measured for total protein quantification by bicinchoninic acid (BCA) assay (#23225 ThermoFisher Scientific) supplemented with 4× loading buffer including 20 mM DTT, heated to 70 °C for 10 min, loaded into 4% SDS-PAGE gel, run for 45 min at 140 mV, then transferred into a nitrocellulose membrane (Biorad) using a Trans-Blot Turbo transfer system (Biorad). The membrane was stained with Ponceau (Sigma) to validate transfer for 10 min in gentle agitation then destained for 1 h with MQ water. The membrane was blocked with Licor blocking buffer (LIC927-70001) for 1 h, washed three times for 5 min with TBS-T, incubated with primary antibody BTK (D3H5) rabbit mAb (CST; 8547 S) overnight (16 h) at 4 °C, washed three times for 5 min with TBS-T, and incubated with primary antibody against β-actin (CST; 3700) for 1 h at 25 °C. Membrane was washed three times for 5 min with TBS-T, incubated with fluorescent secondary antibodies anti-mouse IgG Alexa Fluor 647 (CST: 4410S) and anti-rabbit-IgG IRDye 800(LICOR: 926-32211) for 1 h, then washed three times for 5 min with TBS-T, dried, and immediately imaged and analyzed using Licor Odyssey CLx. Prism (GraphPad) software was used to calculate degradation levels. We used second-order polynomial fits to estimate DC50 and Dmax values.

BTK [3] = biological target: T1, BTK; assay: Library screen of BTK abundance by Western blot in K562 or Mino cells; format: cell-based; parameters: endogenous in cells; host or cells: Mino (ATCC CRL-3000), Ramos (ATCC CRL-1596), K562 (NCI-60); conditions: 1 μM compound, 24 h
Experimental: We incubated K562 or Mino cells with 1 μM of the compounds for 24 h and measured the abundance of BTK by Western blot (Supporting Figure 1). […] On the basis of compound RC-1 we synthesized additional compounds (Figure 1), RC-2 with a CH2 group replacing the oxygen nearest the β-carbon, their analogous acrylamides IR-1 and IR-2, and the noncovalent analogue NC-1. We also synthesized the cyanoacrylamide RC-3 (Figure 1), replacing the Cα hydrogens with methyl groups. Similar dimethylated cyanoacrylamides were reported to have improved cellular permeability.[34]
Ramos (ATCC, CRL-1596), Mino (ATCC, CRL-3000), or K562 (NCI-60) cell lines were counted and diluted to 10^6 cell/mL, using 1 mL per well in a 24-well plate, and U2OS (ATCC HTB-96) cells overexpressing human BTK WT or C481S mutant were grown using 2 mL in a six-well plate (see Supporting Information). […] Lysates were prepared as previously described,[29] and samples were measured for total protein quantification by bicinchoninic acid (BCA) assay (#23225 ThermoFisher Scientific) supplemented with 4× loading buffer including 20 mM DTT, heated to 70 °C for 10 min, loaded into 4% SDS-PAGE gel, run for 45 min at 140 mV, then transferred into a nitrocellulose membrane (Biorad) using a Trans-Blot Turbo transfer system (Biorad). […]

BTK [4] = biological target: T1, BTK; assay: Time course of BTK degradation in Ramos and Mino cells; format: cell-based; parameters: endogenous in cells; host or cells: Mino (ATCC CRL-3000), Ramos (ATCC CRL-1596), K562 (NCI-60); conditions: 100 nM PROTAC, Ramos cells (RC-3: Mino cells)
Experimental: We followed the rate of BTK degradation facilitated by this compound series via a time course experiment in Ramos and Mino cells (Supporting Figure 3). The rates of degradation correlated well with the DC50 values observed after 24 h, with NC-1, IR-1, IR-2, and RC-3 degrading BTK within 2–4 h, while RC-2 and RC-1 required 6–24 h to reach maximum degradation.
as §1
Supplementary Figure 3: BTK degradation time dependency.
Ramos (PI3I, RC-1, I R-1, R C-2, I R-2, NC-1) or Mino ( RC-3) cells were treated with 100 nM of PROTAC or DMSO for indicated times, subsequently harvested for BTK levels measurement via western blot.
(1 picture or pasted object on this page, not shown here)

T1 sequence (Q06187 whole entry): as the sequence (Q06187 whole entry, species assumed) above

## O=C1CCC(N2C(=O)c3cccc(O)c3C2=O)C(=O)N1 (stereo not drawn) [thalidomide-OH]
BTK [1]; 2 h pretreatment, then PROTAC 24 h
  effect of pretreatment on PROTAC-mediated BTK degradation: hindered BTK degradation

## N#CC(=CCOCCOCCOCCOCCOCCOc1cccc2c1C(=O)N(C1CCC(=O)NC1=O)C2=O)C(=O)N1CCCC(n2nc(-c3ccc(Oc4ccccc4)cc3)c3c(N)ncnc32)C1 (stereo not drawn) [RC-1]
wild-type BTK
  IC50: 12 nM
BTK [2]
  Dmax: 68%
BTK [3]
  BTK degradation (abundance of BTK by Western blot): consistent prominent levels of degradation in both cell lines
BTK [4]
  time to degrade BTK / reach maximum degradation: 6 to 24 h

## CC(C)C[C@H](NC(=O)[C@H](Cc1ccccc1)NC(=O)c1cnccn1)B(O)O [bortezomib]
BTK [1]; 1 h bortezomib, then PROTAC 4 h
  effect of proteasome inhibitor on PROTAC-mediated BTK degradation: significantly inhibited degradation
